# Legend:
# Assay type in all cases: cell-based, human
# [1] = tested on: adipose mesenchymal stem cells; assay: Size of stem cells (Luna automated cell counter); settings: for effect on the size of the cells: 4 days of culture, result in words; for size of stem cells: mean n=3
# Experimental: (§1) The adipose mesenchymal stem cells of three persons, obtained by subculture to passage 3 in Example 1, were seeded into each of the following media and cultured for 4 days. During 4 days of culture, the morphology of the cells was observed. In addition, the size, viability and CDPL (cell population doubling level) of the cells were measured and expressed as mean values.
# (§2) While the adipose mesenchymal stem cells isolated in Example 1 was cultured in each of the media, the adipose mesenchymal stem cells were collected at different days of culture, and the viability, cell size and CPDL of the cells were measured. Also, telomerase activity was measured for the cells subcultured to passage 3. The Alnus japonica extract in medium 11 was prepared in the following manner.
# The adipose mesenchymal stem cells isolated in Example 1 were seeded in each of the media, and then treated with trypsin at different days of culture. Next, the adipose mesenchymal stem cells were collected, and the size (μm) of the stem cells was measured using Luna™ automated cell counter (n=3).
# [2] = tested on: adipose mesenchymal stem cells; assay: Viability of stem cells (Luna automated cell counter); design: viability of stem cells: unit not given here; settings: for effect on the viability of the cells: 4 days of culture, result in words; for viability of stem cells: mean n=3
# Experimental: as §1, §2
# The viability of the stem cells was measured using Luna™ automated cell counter (n=3).
# [3] = tested on: adipose mesenchymal stem cells; assay: Morphology of stem cells under phase contrast microscope; settings: 4 days of culture; result in words
# Experimental: as §1
# The morphology of the stem cells was observed under a phase contrast microscope and photographed (see FIG. 1).
# [4] = tested on: adipose mesenchymal stem cells; assay: Telomerase activity of stem cells (Telo TAGGG Telomerase PCR ELISA kit); design: telomerase activity (N = 3): unit not given here; settings: for telomerase activity (N = 3): cells cultured to passage 3
# Experimental: as §2
# Adipose mesenchymal stem cells isolated from persons in their 40s, 50s and 60s according to the method of Example 1 were cultured to passage 3 in each of the media shown in Table 4 above, and then the telomerase activity of the stem cells was measured using Telo TAGGG Telomerase PCR ELISA kit (Roche).
# [5] = tested on: adipose mesenchymal stem cells; assay: Cell population doubling level (CPDL) of stem cells
# Experimental: as §1, §2
# The cell population doubling level (CPDL) of the stem cells was calculated using the following equation: CPDL=[…], wherein Nfinal: the number of finally obtained cells; and Ninitial: the number of initially seeded cells.
# [6] = Day 1 post seeding, 20 nM in M9 medium
# [7] = Day 1 post seeding, 50 nM in M9 medium
# [8] = Day 2 post seeding, 20 nM in M9 medium
# [9] = Day 2 post seeding, 50 nM in M9 medium
# [10] = Day 3 post seeding, 20 nM in M9 medium
# [11] = Day 3 post seeding, 50 nM in M9 medium
# [12] = Day 4 post seeding, 20 nM in M9 medium
# [13] = Day 4 post seeding, 50 nM in M9 medium
compound,measurement,setting,value
"COC1=C(OC)C(=O)C(C/C=C(\C)CC/C=C(\C)CC/C=C(\C)CC/C=C(\C)CC/C=C(\C)CC/C=C(\C)CC/C=C(\C)CC/C=C(\C)CC/C=C(\C)CCC=C(C)C)=C(C)C1=O [Coenzyme Q10, coenzyme Q-10]",effect on the size of the cells,[1],no significant effect on the size
same,effect on the viability of the cells,[2],no significant effect on the viability
same,effect on the morphology of the cells,[3],no significant effect on the morphology
same,telomerase activity (N = 3),[4]; 5 μM in M9 medium,2.817
same,telomerase activity (N = 3),[4]; 10 μM in M9 medium,1.964
"Cc1c(-c2cnccn2)ssc1=S [Oltipraz, oltipraz]",telomerase activity (N = 3),[4]; 7 μM in M9 medium,1.968
same,telomerase activity (N = 3),[4]; 10 μM in M9 medium,2.137
Oc1ccc(C=Cc2cc(O)cc(O)c2)cc1 [Resveratrol],telomerase activity (N = 3),[4]; 1 μM in M9 medium,2.042
same,telomerase activity (N = 3),[4]; 2 μM in M9 medium,1.654
"CC(C)(C)c1cc(O)ccc1O [TBH-Q, T-BHQ]",telomerase activity (N = 3),[4]; 5 μM in M9 medium,2.524
same,telomerase activity (N = 3),[4]; 20 μM in M9 medium,2.838
apelin,effect on the size of the cells,[1],no significant effect on the size
same,size of stem cells,[1]; [6],19.0 μm
same,size of stem cells,[1]; [7],18.6 μm
same,size of stem cells,[1]; [8],18.3 μm
same,size of stem cells,[1]; [9],15.6 μm
same,size of stem cells,[1]; [10],18.2 μm
same,size of stem cells,[1]; [11],18.0 μm
same,size of stem cells,[1]; [12],18.5 μm
same,size of stem cells,[1]; [13],17.9 μm
same,effect on the viability of the cells,[2],no significant effect on the viability
same,viability of stem cells,[2]; [6],97.2
same,viability of stem cells,[2]; [7],91.7
same,viability of stem cells,[2]; [8],98.9
same,viability of stem cells,[2]; [9],100
same,viability of stem cells,[2]; [10],98.8
same,viability of stem cells,[2]; [11],98.8
same,viability of stem cells,[2]; [12],99.4
same,viability of stem cells,[2]; [13],99.2
same,effect on the morphology of the cells,[3],no significant effect on the morphology
same,telomerase activity (N = 3),[4]; 5 nM in M9 medium,2.838
same,telomerase activity (N = 3),[4]; 20 nM in M9 medium,3.068
same,telomerase activity compared between media,"[4]; 20 nM, passage 3, result in words",highest telomerase activity
same,cell population doubling level (CPDL),"[5]; Day 0 post seeding, 20 nM in M9 medium",0.00
same,cell population doubling level (CPDL),"[5]; Day 0 post seeding, 50 nM in M9 medium",0.00
same,cell population doubling level (CPDL),[5]; [6],0.89
same,cell population doubling level (CPDL),[5]; [7],0.56
same,cell population doubling level (CPDL),[5]; [8],2.84
same,cell population doubling level (CPDL),[5]; [9],1.65
same,cell population doubling level (CPDL),[5]; [10],6.54
same,cell population doubling level (CPDL),[5]; [11],5.11
same,cell population doubling level (CPDL),[5]; [12],9.28
same,cell population doubling level (CPDL),[5]; [13],8.20
same,ability to proliferate,"[5]; cultured in medium containing the substance, result in words",proliferation ability efficiently increased

# Reference: patent publication US9982234B2, “Culture medium composition for improving regenerative capacity of stem cells, and stem cell culturing method using same” (R BIO CO., LTD., priority 2013, dated 2018)
